In PMC9081329, “Pharmacokinetics, Mass Balance, Excretion, and Tissue Distribution of Plasmalogen Precursor PPI-1011” (Frontiers in Cell and Developmental Biology, 2022):

Test: Single dose tissue distribution study (QWBA, LSC of blood and plasma)
Format: in vivo, Sprague-Dawley rats
Procedure: Six male rats were administered a single oral dose of [^14C]PPI-1011 at 100 mg/kg (200 μCi/kg) and one rat was sacrificed at each of the following time points after the administration of the dose: 8, 12, 18, 24, 48, or 168 h. Terminal blood was collected by cardiac puncture directly into tubes with K2EDTA, an aliquot was stored at 4°C until LSC was performed for radioactivity, while the remaining blood was processed to plasma and stored at −20°C until LSC. Following blood collection, the carcasses were frozen in a cold bath with hexanes and dry ice for at least 8 min and then dried and stored at −70°C for at least 5 h. The carcasses were transferred to a −20°C freezer for at least 12 h before embedding.
QWBA was used to determine radioactivity concentrations in the caecum (contents and mucosa), large intestine (contents and mucosa), small intestine (contents and mucosa), stomach (contents and mucosa), brain, choroid plexus, spinal cord, bone, skin, adrenal gland, pineal body, pituitary gland, thyroid gland, liver, kidney (cortex, medulla and whole kidney), urinary bladder (contents and wall), brown fat, white fat, eye (lens, uveal tract and whole eye), epididymis, prostate gland, testis, ovary, uterus, lung, exorbital lachrymal gland, Harderian gland, pancreas, salivary gland, skeletal muscle, myocardium, cardiac blood, bone marrow, lymph node, spleen, and thymus. As well, LSC was used to determine the total radioactivity in the whole blood and plasma.
The whole-body cryosectioning technique described by ([Ullberg, 1977]) was the basis for embedding and cryosectioning the rats assigned to this study. Each frozen carcass was shaved, and then the limbs and tail were removed prior to embedding. Chilled (4°C) 3% CMC (low viscosity) was utilized to provide a firm support of reinforced ice around each rat and for a secure attachment to the microtome stage. Upon thorough freezing of the embedding medium surrounding each rat, the frozen CMC block was removed from the freezing bath and four 3/8 inch holes were drilled into the block. One cryosection quality control standard (CQCS) was prepared with a known amount of radioactivity and at least 1 ml aliquots were added to each of the four drilled holes. CQCS data were utilized to evaluate the overall performance of the QWBA assay.
Each frozen rat was sagittally trimmed (50–100 μm) at −20°C until exposure of a few target tissues employing a Leica Cryomacrocut heavy-duty microtome (Leica Microsystems Inc.,). Disposable stainless steel Feather type H45L knives (Feather Safety Razor Co., Ltd.) were utilized for trimming and sectioning each frozen rat. Several thinner sections (50 μm) were discarded prior to obtaining multiple 50 μm sections at various cryosectioning levels for QWBA analysis. Upon the collection of at least 60 target tissues in multiple cryosectioning levels, the cryosections were kept in the Cryomacrocut cryochamber for a minimum of 18 h for dehydration depending upon the number of cryosections within the cryochamber. After dehydration was complete, the cryosections were transferred to ambient temperature for processing. Mounted whole-body cryosections and a set of 15 standards were sandwiched between a standard phosphor screen and an exposure cassette. All cryosections were exposed to the phosphor screen for 4-days in a cabinet protected with lead prior to scanning using a Typhoon PhosphorImager (Cytiva). MCID™ Analysis software (InterFocus Ltd.) was utilized to generate a calibration curve of the STD nominal concentrations (nCi/g) versus PhosphorImager response (counts/μm^2 minus background) by weighted (1/x) linear regression analysis ([Potchoiba et al., 1995]; [Potchoiba et al., 1998]). The linear regression curve was then utilized to determine the concentration (nCi/g) of total radioactivity in whole-body tissues and blood. Radioactivity concentrations were expressed as μg Eq/g based on the specific activity of the compound in the final dose formulations. […]

[1] = 12 h post single oral 100 mg/kg

In the case of CC/C=C\C/C=C\C/C=C\C/C=C\C/C=C\C/C=C\CCC(=O)O[C@H](CO[14CH2]CCCCCCCCCCCCCCC)COC(=O)CCCCC1CCSS1 (stereo partly shown) [[^14C]PPI-1011], the “Blood:plasma concentration ratio” value (168 HPD, single dose) was 2.96, the “Radioactivity concentration, Adipose - Brown” value (8 h post single oral 100 mg/kg) was 171 μg equivalents/g and the “Radioactivity concentration, Adipose - Brown (Vessel Wall)” value (8 h post single oral 100 mg/kg) was 301 μg equivalents/g. The “Radioactivity concentration, Adipose - Subcutaneous” value (8 h post single oral 100 mg/kg) was 74.0 μg equivalents/g, the “Radioactivity concentration, Adipose - Visceral” value (8 h post single oral 100 mg/kg) was 83.1 μg equivalents/g and the “Radioactivity concentration, Adrenal Gland” value (8 h post single oral 100 mg/kg) was 195 μg equivalents/g. The “Radioactivity concentration, Bladder Wall” value (8 h post single oral 100 mg/kg) was 86.0 μg equivalents/g, the “Radioactivity concentration, Blood - QWBA” value (8 h post single oral 100 mg/kg) was 35.4 μg equivalents/g and the “Radioactivity concentration, Bone Marrow” value (8 h post single oral 100 mg/kg) was 23.5 μg equivalents/g. The “Radioactivity concentration, Bone Surface” value (8 h post single oral 100 mg/kg) was 2.30 μg equivalents/g, the “Radioactivity concentration, Cerebellum” value (8 h post single oral 100 mg/kg) was 2.70 μg equivalents/g and the “Radioactivity concentration, Cerebrum” value (8 h post single oral 100 mg/kg) was 2.39 μg equivalents/g. For the same compound, the “Radioactivity concentration, Choroid Plexus” value (8 h post single oral 100 mg/kg) was 14.9 μg equivalents/g, the “Radioactivity concentration, Colliculus” value (8 h post single oral 100 mg/kg) was 3.50 μg equivalents/g and the “Radioactivity concentration, Diaphragm” value (8 h post single oral 100 mg/kg) was 55.6 μg equivalents/g. For the same compound, the “Radioactivity concentration, Epididymis” value (8 h post single oral 100 mg/kg) was 39.8 μg equivalents/g, the “Radioactivity concentration, Esophagus” value (8 h post single oral 100 mg/kg) was 17.4 μg equivalents/g and the “Radioactivity concentration, Exorbital Lacrimal Gland” value (8 h post single oral 100 mg/kg) was 28.7 μg equivalents/g. The “Radioactivity concentration, Gastric Mucosa” value (8 h post single oral 100 mg/kg) was 91.2 μg equivalents/g, the “Radioactivity concentration, Harderian Gland” value (8 h post single oral 100 mg/kg) was 14.4 μg equivalents/g and the “Radioactivity concentration, Intra-Orbital Lacrimal Gland” value (8 h post single oral 100 mg/kg) was 10.4 μg equivalents/g. For the same compound, the “Radioactivity concentration, Kidney” value (8 h post single oral 100 mg/kg) was 42.9 μg equivalents/g, the “Radioactivity concentration, Large Intestines” value (8 h post single oral 100 mg/kg) was 12.5 μg equivalents/g and the “Radioactivity concentration, Liver” value (8 h post single oral 100 mg/kg) was 313 μg equivalents/g. The “Radioactivity concentration, Lung” value (8 h post single oral 100 mg/kg) was 74.0 μg equivalents/g, the “Radioactivity concentration, Lymph Node” value (8 h post single oral 100 mg/kg) was 22.7 μg equivalents/g and the “Radioactivity concentration, Medulla Oblongata” value (8 h post single oral 100 mg/kg) was 2.40 μg equivalents/g. The “Radioactivity concentration, Muscle” value (8 h post single oral 100 mg/kg) was 10.3 μg equivalents/g, the “Radioactivity concentration, Myocardium” value (8 h post single oral 100 mg/kg) was 92.0 μg equivalents/g and the “Radioactivity concentration, Nasal Turbinates” value (8 h post single oral 100 mg/kg) was 16.0 μg equivalents/g. The “Radioactivity concentration, Ocular - Uveal Tract” value (8 h post single oral 100 mg/kg) was 6.97 μg equivalents/g, the “Radioactivity concentration, Ocular - Whole Eye” value (8 h post single oral 100 mg/kg) was 1.83 μg equivalents/g and the “Radioactivity concentration, Olfactory Bulb” value (8 h post single oral 100 mg/kg) was 2.16 μg equivalents/g. The “Radioactivity concentration, Pancreas” value (8 h post single oral 100 mg/kg) was 66.3 μg equivalents/g, the “Radioactivity concentration, Parotid Gland” value (8 h post single oral 100 mg/kg) was 39.1 μg equivalents/g and the “Radioactivity concentration, Pineal Gland” value (8 h post single oral 100 mg/kg) was 11.9 μg equivalents/g. The “Radioactivity concentration, Pituitary Gland” value (8 h post single oral 100 mg/kg) was 21.2 μg equivalents/g, the “Radioactivity concentration, Preputial Gland” value (8 h post single oral 100 mg/kg) was 33.6 μg equivalents/g and the “Radioactivity concentration, Prostate” value (8 h post single oral 100 mg/kg) was 49.6 μg equivalents/g. The “Radioactivity concentration, Renal Cortex” value (8 h post single oral 100 mg/kg) was 41.4 μg equivalents/g, the “Radioactivity concentration, Renal Medulla” value (8 h post single oral 100 mg/kg) was 51.0 μg equivalents/g and the “Radioactivity concentration, Salivary Gland” value (8 h post single oral 100 mg/kg) was 53.3 μg equivalents/g. For the same compound, the “Radioactivity concentration, Seminal Vesicles” value (8 h post single oral 100 mg/kg) was 12.8 μg equivalents/g, the “Radioactivity concentration, Skin - Non-Pigmented” value (8 h post single oral 100 mg/kg) was 15.0 μg equivalents/g and the “Radioactivity concentration, Small Intestines” value (8 h post single oral 100 mg/kg) was 609 μg equivalents/g. For the same compound, the “Radioactivity concentration, Spinal Cord” value (8 h post single oral 100 mg/kg) was 2.71 μg equivalents/g, the “Radioactivity concentration, Spleen” value (8 h post single oral 100 mg/kg) was 105 μg equivalents/g and the “Radioactivity concentration, Stomach” value (8 h post single oral 100 mg/kg) was 22.6 μg equivalents/g. For the same compound, the “Radioactivity concentration, Testis” value (8 h post single oral 100 mg/kg) was 2.65 μg equivalents/g, the “Radioactivity concentration, Thalamus” value (8 h post single oral 100 mg/kg) was 2.27 μg equivalents/g and the “Radioactivity concentration, Thymus” value (8 h post single oral 100 mg/kg) was 10.7 μg equivalents/g. For the same compound, the “Radioactivity concentration, Thyroid” value (8 h post single oral 100 mg/kg) was 49.9 μg equivalents/g, the “Radioactivity concentration, Whole Brain” value (8 h post single oral 100 mg/kg) was 2.60 μg equivalents/g and the “Radioactivity concentration, Adipose - Brown” value [1] was 426 μg equivalents/g. For the same compound, the “Radioactivity concentration, Adipose - Brown (Vessel Wall)” value [1] was 383 μg equivalents/g, the “Radioactivity concentration, Adipose - Subcutaneous” value [1] was 242 μg equivalents/g and the “Radioactivity concentration, Adipose - Visceral” value [1] was 170 μg equivalents/g. The “Radioactivity concentration, Adrenal Gland” value [1] was 367 μg equivalents/g, the “Radioactivity concentration, Bladder Wall” value [1] was 19.3 μg equivalents/g and the “Radioactivity concentration, Blood - QWBA” value [1] was 16.4 μg equivalents/g. For the same compound, the “Radioactivity concentration, Bone Marrow” value [1] was 23.0 μg equivalents/g, the “Radioactivity concentration, Bone Surface” value [1] was 1.15 μg equivalents/g and the “Radioactivity concentration, Cecum” value [1] was 450 μg equivalents/g. The “Radioactivity concentration, Cerebellum” value [1] was 2.69 μg equivalents/g, the “Radioactivity concentration, Cerebrum” value [1] was 2.22 μg equivalents/g and the “Radioactivity concentration, Choroid Plexus” value [1] was 17.1 μg equivalents/g. The “Radioactivity concentration, Colliculus” value [1] was 3.03 μg equivalents/g, the “Radioactivity concentration, Diaphragm” value [1] was 59.9 μg equivalents/g and the “Radioactivity concentration, Epididymis” value [1] was 70.9 μg equivalents/g. The “Radioactivity concentration, Esophagus” value [1] was 16.9 μg equivalents/g, the “Radioactivity concentration, Exorbital Lacrimal Gland” value [1] was 34.5 μg equivalents/g and the “Radioactivity concentration, Gastric Mucosa” value [1] was 67.8 μg equivalents/g. The “Radioactivity concentration, Harderian Gland” value [1] was 10.8 μg equivalents/g, the “Radioactivity concentration, Intra-Orbital Lacrimal Gland” value [1] was 8.89 μg equivalents/g and the “Radioactivity concentration, Kidney” value [1] was 45.3 μg equivalents/g. For the same compound, the “Radioactivity concentration, Large Intestines” value [1] was 209 μg equivalents/g, the “Radioactivity concentration, Liver” value [1] was 269 μg equivalents/g and the “Radioactivity concentration, Lung” value [1] was 51.9 μg equivalents/g. The “Radioactivity concentration, Lymph Node” value [1] was 22.6 μg equivalents/g, the “Radioactivity concentration, Medulla Oblongata” value [1] was 2.44 μg equivalents/g and the “Radioactivity concentration, Muscle” value [1] was 12.6 μg equivalents/g. The “Radioactivity concentration, Myocardium” value [1] was 72.6 μg equivalents/g, the “Radioactivity concentration, Nasal Turbinates” value [1] was 10.6 μg equivalents/g and the “Radioactivity concentration, Ocular - Uveal Tract” value [1] was 6.57 μg equivalents/g. For the same compound, the “Radioactivity concentration, Ocular - Whole Eye” value [1] was 2.03 μg equivalents/g.
